Results published in patent publication US11401264B2, “Heterocyclic compound” (Orizuru Therapeutics, Inc., priority 2018, dated 2022).

System: cardiomyocytes from human iPS cell lines 409B2
Assay: Experimental Example 4: membrane potential analysis (FluoVolt), beats per minute
Type: cell-based
Details: treated from 25th day, measured on 28th day; n = 3; DMSO control 70.7
Method: For analysis of electrophysiological function of cardiomyocytes, humans iPS cell lines 409B2 (prepared from episomal vector (pCXLE-hOCT3/4-shp53-F, pCXLE-hSK, pCXLE-hUL) using HDF1388 purchased from Cell Applications, Inc (reference literature; Okita et al., Nat Methods. 8(5):409-12. (2011))) were used.
The maintenance culture of the above-mentioned iPS cell lines was carried out by a conventional method (Takahashi K, et al. Cell. 131: 861-72, 2007 and Nakagawa M, et al. Nat Biotechnol. 26: 101-6, 2008).
For differentiation induction into cardiomyocytes, the iPS cell lines were treated with CTK solution (ReproCELL) for 2 minutes, the solution was removed, and then the iPS cell lines were treated with Accumax (Innovative Cell Technologies) for 5 minutes, and the cells were dissociated into the single cell by pipetting. The cells were collected by centrifugation (1,000 rpm, 5 min), and seeded on low attachment 96 well dish (Corning) by 5000 cells/70 μL/well, and cultured in a medium prepared by adding 1% L-glutamine, transferrin 150 μg/mL, ascorbic acid 50 μg/mL (Sigma), monothioglycerol 4×10^−4 M, 10 μM Rock inhibitor (Y-27632), 2 ng/mL BMP4 (R&D) and 0.5% Matrigel (Growth Factor Reduced) to StemPro-34 SFM (ThermoFisher) at 37° C., under 5% oxygen condition to form embryoid bodies (0 day). […]

Q: Which “beats (mean)” value does the source give for O=C1c2ccc(N3CCOCC3)cc2CN1c1ccc2[nH]c(-c3ccc(Br)cc3)nc2c1 [Example 8, 2-(2-(4-bromophenyl)-1H-benzimidazol-5-yl)-5-(morpholin-4-yl)isoindolin-1-one] here?
A: 32.0 beats per minute
